Laboratory results taken from US5686448A (priority 1995, dated 1997).
“And” between values parts separate entries of the source, which are not always exact repeats. Equal entries are not always repeated. Where two headings read alike, the source gives them in different places.

How the values were obtained:
cell-free HSV virus = settings: 20 mg/ml
Method: Both mixtures were maintained at 4° C. for 30 minutes, 60 minutes, or 90 minutes. 0.3 ml of the solutions were plated onto susceptible cell cultures and incubated at 37° C. for 36 hours. All cultures were stained and compared to the virus control.

[1] = Excerpt: Patient B is a person diagnosed as having both HSV type 1 (expressed as oral lesions) and HSV type 2 (expressed as penile lesions).
Patient E is a person who weighed 93 kg when they reported for treatment.
Patient K is a person who weighed 59 kg. when they reported for treatment. They were diagnosed as having HSV type 2. They described a history of lesions on the buttocks and genital region with attacks occurring monthly in cooler weather and weekly in warmer weather.

HSV-1 (McKrae strain) [2] = settings: for cells exhibiting CPE, area of infection per field: 20 mg/ml
[3] = test system: Flow 1000 cells (foreskin cells); settings: 25 mg/ml, 48 hours
Method: (§1) Healthy confluent monolayer cell cultures were overlaid with 1 ml of the drug and incubated for 48 hours at 37° C. and then stained. Cell cultures with maintenance media were used as controls.

Vero cells = test system: Vero cells
Method: To determine the toxicity level of the drug, all three cell lines--RK-13, Vero cells, and WISH cells--were used. In the toxicity experiments, the effect of the drug on the uninfected cell for a range of periods of time was determined. Accordingly, cultures were incubated with and without the drug. The time of exposure was from one to seven hours. A comparison was then made between the drug tested cultures and the control cultures. After each period of incubation, the cells were washed and fresh media was added to the cells. The cell viability was then determined by dividing these cultures and having them grow into new cell cultures.
At the end of the incubation period, the cultures were washed twice with sterile PBS (Dulbecco). Fresh medium was added to each of the cultures. The cultures were then incubated for an additional 24 hours.
as §1

HSV-1 (McKrae strain) [4] = settings: for No. of Plaques: virus controls 270, 270, 252
Method: All cultures were incubated at 37° C. in a 5% CO2 humidified atmosphere. The cultures were stained with crystal violet to aid in counting the plaque.

RK-13 cells = settings: 25 mg/ml, 48 hours
[5] = Patient A, second infusion 3.2 cc
[6] = Exp. 1D, added after adsorption, 25.0 mg/culture
[7] = Exp. 1D, added after adsorption, 50.0 mg/culture
[8] = 5, 2.5, 1.25 mg/culture overnight
[9] = 5, 2.5, 1.25 mg/culture, additional 24 hours in fresh medium
[10] = Patient J, following day, 1% TEAC ointment topical
[11] = Patient J, two days after infusion 3.6 cc
[12] = Patient K, after second infusion
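Wherever duration of spots is given: individual clinical case observations in adult human patients with a history of recurrent HSV type 2 lesions, outcomes described qualitatively as reported symptoms and lesion episodes.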
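Wherever duration of vesicles is given: individual clinical case observations in adult human patients with a history of recurrent HSV type 2 lesions, outcomes described qualitatively as reported symptoms and lesion episodes.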
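Wherever recurrence of lesions or pain is given: individual clinical case observations in adult human patients with a history of recurrent HSV type 2 lesions, outcomes described qualitatively as reported symptoms and lesion episodes.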
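Wherever tiny areas under the skin is given: individual clinical case observations in adult human patients with a history of recurrent HSV type 2 lesions, outcomes described qualitatively as reported symptoms and lesion episodes.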

## CC[N+](CC)(CC)CC.[Cl-] [TEAC, tetraethylammonium chloride]
cell-free HSV virus
  inactivation of cell-free virus: does not inactivate the virus
[1]; Patient A, first infusion 2.8 cc
  side effects: some blurred vision and slight dizziness on rising to the seated position
[1]; [5]
  side effects: some blurred vision
[1]; Patient B, 3.7 cc (5 mg/kg)
  drug related effects: blurred vision, dryness of the mouth, and unsteady gait
  time to cessation of drug related effects after infusion: 10 to 15 min
[1]; Patient C, 3.85 cc (5 mg/kg)
  side effects: slightly blurred vision
[1]; Patient D, 2.8 cc (5 mg/kg)
  side effects: dry mouth and transient blurred vision
[1]; Patient E, 4.8 cc (5 mg/kg)
  side effects: slightly blurred vision
[1]; Patient G, 4.3 cc
  reddening of lip: some reddening of the lip
[1]; Patient J, 3.6 cc (5.5 mg/kg)
  side effects: some blurred vision
[1]; Patient K, first infusion 3.1 cc
  side effects: some blurred vision
[1]; Patient K, second infusion 3.4 cc
  side effects: blurred vision
[1]; Patient L, 2.9 cc (5.5 mg/kg)
  duration of feeling badly following treatment: 24 to 36 h
  side effects: some blurred vision
HSV-1 (McKrae strain) [2]; 6 hours P.I., virus control 1/4
  cells exhibiting CPE, area of infection per field: 1/6
HSV-1 (McKrae strain) [2]; 30 hours P.I., virus control 1/2
  cells exhibiting CPE, area of infection per field: scattered
HSV-1 (McKrae strain) [2]; 6 hours P.I., 100 cells examined, control 0
  No. of cells with virus particles: 0
HSV-1 (McKrae strain) [2]; 6 hours P.I., 100 cells examined, control 14
  No. of cells with internuclear dense bodies: 12
HSV-1 (McKrae strain) [2]; 6 hours P.I., 100 cells examined, control 14%
  Total %: 12%
HSV-1 (McKrae strain) [2]; 6 hours post infection
  cell membrane appearance: unusually extended and wavy
HSV-1 (McKrae strain) [2]; 24 hours P.I., 300 cells examined, control 0 of 50
  No. of cells with internuclear dense bodies: 12
HSV-1 (McKrae strain) [2]; 24 hours P.I., 300 cells examined, control 50 of 50
  No. of cells with virus particles: 8
HSV-1 (McKrae strain) [2]; 24 hours P.I., 300 cells examined, control 100%
  Total %: 6%
HSV-1 (McKrae strain) [2]; 24 hours post infection
  nucleocapsid size: about 99.6 A
  nucleocapsids in cytoplasm: coreless nucleocapsids in paracrystalline arrays
  virus particles in inter-cellular space: some abnormal virus particles were detected
HSV-1 (F strain); Exp. 1C, added after inoculation, 0.62 mg/culture
  % plaque inhibition: 30%
HSV-1 (F strain); Exp. 1C, added after inoculation, 1.25 mg/culture
  % plaque inhibition: 39%
HSV-1 (F strain); Exp. 1C, added after inoculation, 2.50 mg/culture
  % plaque inhibition: 46%
HSV-1 (F strain); Exp. 1C, added after inoculation, 5.00 mg/culture
  % plaque inhibition: 45%
HSV-1 (F strain); Exp. 1C, added after inoculation, 10.00 mg/culture
  % plaque inhibition: 56%
HSV-1 (F strain); Exp. 1C, all dilutions
  antiviral activity: Antiviral activity was seen in all dilutions tested
HSV-1 (F strain); Exp. 1D, added after adsorption, 6.2 mg/culture
  % plaque inhibition: 20%
HSV-1 (F strain); Exp. 1D, added after adsorption, 12.5 mg/culture
  % plaque inhibition: 62%
HSV-1 (F strain); Exp. 1D, added after adsorption, 25 mg/culture
  plaque formation: no plaque formed
HSV-1 (F strain); [6]
  % plaque inhibition: 100%
  cell layer appearance (thin = cells attached, monolayer not confluent): thin
HSV-1 (F strain); Exp. 1D, added after adsorption, 50 mg/culture
  plaque formation: no plaque formed
HSV-1 (F strain); [7]
  % plaque inhibition: 100%
  cell layer appearance (thin = cells attached, monolayer not confluent): thin
HSV-1 (F strain); HSV-1, summary
  inhibition of in vitro replication: inhibited the in vitro replication of HSV-1 and HSV-2
WISH cells; [8]
  change in morphology of cells: No change in the morphology of the cells
WISH cells; [9]
  growth or general appearance vs untreated: no apparent difference in the growth or general appearance
[3]
  toxicity: toxicity
Vero cells; 25 mg/ml, 48 hours
  toxicity: slight toxicity
Vero cells; [8]
  change in morphology of cells: No change in the morphology of the cells
Vero cells; [9]
  growth or general appearance vs untreated: no apparent difference in the growth or general appearance
HSV-1 (McKrae strain) [4]; 12.5 mg/ml
  enhancement of plaque: apparent enhancement of plaque
  No. of Plaques: 300
HSV-1 (McKrae strain) [4]; 25 mg/ml
  monolayer appearance: thinned out appearance
  No. of Plaques: 0
HSV-1 (McKrae strain) [4]; 12.5, 6.25, 3.125 mg/ml
  plaque inhibition: not significantly effective in achieving plaque inhibition
HSV type 2; Patient A, about two weeks after third infusion 3.4 cc
  tiny areas under the skin: disappeared in about a day
HSV type 2; Patient A, after first infusion
  duration of vesicles: disappeared in two to three days without pain
HSV type 2; Patient A, after third infusion
  duration of spots: 24 h
HSV type 2; Patient A, eighteen months after initial exam
  recurrence of lesions or pain: no further lesions or pain
HSV type 2; Patient A, first infusion 2.8 cc of 100 mg/cc
  sciatic pain: cessation of sciatic pain
HSV type 2; [5]
  sciatic nerve pain: the sciatic nerve pain disappeared during the infusion
HSV type 2; Patient D
  itching and tingling: itching and tingling disappeared
HSV type 2; Patient D, two days later
  lesions: all lesions were improving
HSV type 2; Patient E, 5 days after third infusion 5 cc
  lesions: all lesions had cleared up
HSV type 2; Patient E, after first infusion
  prodome and lesions: massive prodome with large weeping lesions
HSV type 2; Patient E, after third infusion
  pinpoint lesions breaking out: 5-6 pinpoint lesions
HSV type 2; Patient E, next day after second infusion
  prodome and lesions: no prodome and no lesions
HSV type 2; Patient E, second day after second infusion
  breakout: another breakout was occurring
HSV type 2; Patient E, two days after first infusion
  lesions: the lesions had started to crust
HSV type 2; Patient F, about 3 weeks later
  general condition: completely cleared up
HSV type 2; Patient F, next day, 3.8 cc
  lesion: improved
HSV type 2; Patient F, nine days after second infusion
  new lesions: on the other side lesions had developed
HSV type 2; Patient F, subsequent follow up
  duration of subsequent lesions: 12 days and 7 days
HSV type 2; Patient G, 4.3 cc
  crusting of lesions: never crusted
  psoriasis: psoriasis improved
  time to disappearance of lesions: ≤ 48 h
HSV type 2; Patient G, next day, 4.3 cc
  lesions: the lesions improving
HSV type 2; Patient H, 6 days later
  setback: setback 6 days later when the condition became a visual attack
HSV type 2; Patient H, following day, 4.6 cc (6.0 mg/kg)
  improvement: striking improvement
HSV type 2; Patient H, six months after treatment, besides 2 minor incidents of red spots and some aura
  further problems: no further problems
HSV type 2; Patient J, 12 months later, ointment applied
  incidents since treatment: very few incidents since treatment
HSV type 2; [10]
  new vesicles: 2 vesicles
  tingling and redness: the tingling and redness had gone
HSV type 2; Patient J, later attack, 1% TEAC ointment topical
  duration of lesion: 3 days
HSV type 2; Patient J, three days later, 1% TEAC ointment topical
  lesions: all the lesions had dried up
HSV type 2; [11]
  lesions: the lesions were drying
  pain: the pain had disappeared
HSV type 2; [12]
  duration of attacks: 2 to 3 days
  severity of attacks: milder severity
HSV type 2; Patient K, six weeks after second infusion 3.4 cc
  expected attack: the attack had not occurred
RK-13 cells
  toxicity: toxicity
